Source: ChEMBL document CHEMBL3885881, “DrugMatrix”

Species: Rattus norvegicus
Experiment: DrugMatrix - Regimen: Daily Repeat
Format: toxicity, organism-based, Sprague-Dawley
Design: regimen Daily Repeat, gender Male, age 6-8 weeks
Conditions: in vivo, po, route oral GAVAGE, vehicle .5 % CMC; for ABSOLUTE BASOPHIL / ABSOLUTE EOSINOPHIL / ABSOLUTE LYMPHOCYTE / ABSOLUTE MONOCYTE / ABSOLUTE SEGMENTED NEUTROPHIL / BASOPHIL / EOSINOPHIL / ERYTHROCYTE COUNT / HEMATOCRIT / HEMOGLOBIN / LEUKOCYTE COUNT / LYMPHOCYTE / MEAN CORPUSCULAR HEMOGLOBIN / MEAN CORPUSCULAR HEMOGLOBIN CONCENTRATION / MEAN CORPUSCULAR VOLUME / MONOCYTE / NEUTROPHIL / NUCLEATED RED BLOOD CELLS / PLATELET COUNT: tissue Blood; for ALANINE AMINOTRANSFERASE / ALBUMIN / ALKALINE PHOSPHATASE / ASPARTATE AMINOTRANSFERASE / BLOOD UREA NITROGEN / CARBON DIOXIDE / CHLORIDE / CHOLESTEROL / CREATINE PHOSPHOKINASE / CREATININE / GLUCOSE / LACTATE DEHYDROGENASE / LIPASE / PHOSPHORUS / POTASSIUM / SODIUM / TOTAL BILIRUBIN / TOTAL PROTEIN / URIC ACID: tissue Plasma
[1] = 0 mg/kg, 72 h, dose level Control, time 3 day
[2] = 0 mg/kg, 120 h, dose level Control, time 5 day
[3] = 100 mg/kg, 72 h, dose level Low, time 3 day

Structure (SMILES): Cl.NC[C@H]1CC[C@H](C(=O)Oc2ccc(CCC(=O)O)cc2)CC1 [CETRAXATE HYDROCHLORIDE]
- ABSOLUTE BASOPHIL [1]: 0 CELLS/uL
- ABSOLUTE EOSINOPHIL [1]: 284.5 CELLS/uL
- ABSOLUTE LYMPHOCYTE [1]: 11670.5 CELLS/uL
- ABSOLUTE MONOCYTE [1]: 420.83 CELLS/uL
- ABSOLUTE SEGMENTED NEUTROPHIL [1]: 1024.17 CELLS/uL
- BASOPHIL [1]: 0%
- EOSINOPHIL [1]: 1.67%
- ERYTHROCYTE COUNT [1]: 5.38 x10E6/uL
- HEMATOCRIT [1]: 34.05%
- HEMOGLOBIN [1]: 12.75 G/DL
- LEUKOCYTE COUNT [1]: 13.4 x10E3/uL
- LYMPHOCYTE [1]: 88.33%
- MEAN CORPUSCULAR HEMOGLOBIN [1]: 23.73 pg
- MEAN CORPUSCULAR HEMOGLOBIN CONCENTRATION [1]: 37.43 G/DL
- MEAN CORPUSCULAR VOLUME [1]: 63.4 fL
- MONOCYTE [1]: 2.83%
- NEUTROPHIL [1]: 7.17%
- NUCLEATED RED BLOOD CELLS [1]: 0 /100WBC
- PLATELET COUNT [1]: 1184.67 x10E3/uL
- ALANINE AMINOTRANSFERASE [1]: 45.33 u/L
- ALBUMIN [1]: 4.3 G/DL
- ALKALINE PHOSPHATASE [1]: 388.83 u/L
- ASPARTATE AMINOTRANSFERASE [1]: 84.83 u/L
- BLOOD UREA NITROGEN [1]: 15.5 mg/dL
- CARBON DIOXIDE [1]: 27 mmol/L
- CHLORIDE [1]: 101.8 MEQ/L
- CHOLESTEROL [1]: 76.67 mg/dL
- CREATINE PHOSPHOKINASE [1]: 301 u/L
- CREATININE [1]: 0.21 mg/dL
- GLUCOSE [1]: 168.83 mg/dL
- LACTATE DEHYDROGENASE [1]: 294.83 u/L
- LIPASE [1]: 9.8 u/L
- PHOSPHORUS [1]: 13.25 mg/dL
- POTASSIUM [1]: 6.41 MEQ/L
- SODIUM [1]: 143.72 MEQ/L
- TOTAL BILIRUBIN [1]: 0.22 mg/dL
- TOTAL PROTEIN [1]: 5.98 G/DL
- URIC ACID [1]: 1.5 mg/dL
- ABSOLUTE BASOPHIL [2]: 0 CELLS/uL
- ABSOLUTE EOSINOPHIL [2]: 190.67 CELLS/uL
- ABSOLUTE LYMPHOCYTE [2]: 12549.5 CELLS/uL
- ABSOLUTE MONOCYTE [2]: 276 CELLS/uL
- ABSOLUTE SEGMENTED NEUTROPHIL [2]: 1067.17 CELLS/uL
- BASOPHIL [2]: 0%
- EOSINOPHIL [2]: 1.33%
- ERYTHROCYTE COUNT [2]: 5.66 x10E6/uL
- HEMATOCRIT [2]: 35.92%
- HEMOGLOBIN [2]: 13.65 G/DL
- LEUKOCYTE COUNT [2]: 14.08 x10E3/uL
- LYMPHOCYTE [2]: 89%
- MEAN CORPUSCULAR HEMOGLOBIN [2]: 24.12 pg
- MEAN CORPUSCULAR HEMOGLOBIN CONCENTRATION [2]: 38.03 G/DL
- MEAN CORPUSCULAR VOLUME [2]: 63.47 fL
- MONOCYTE [2]: 2%
- NEUTROPHIL [2]: 7.67%
- NUCLEATED RED BLOOD CELLS [2]: 0.17 /100WBC
- PLATELET COUNT [2]: 1251.67 x10E3/uL
- ALANINE AMINOTRANSFERASE [2]: 43.33 u/L
- ALBUMIN [2]: 4.22 G/DL
- ALKALINE PHOSPHATASE [2]: 365.67 u/L
- ASPARTATE AMINOTRANSFERASE [2]: 83.67 u/L
- BLOOD UREA NITROGEN [2]: 18.17 mg/dL
- CARBON DIOXIDE [2]: 28.67 mmol/L
- CHLORIDE [2]: 103.5 MEQ/L
- CHOLESTEROL [2]: 71.5 mg/dL
- CREATINE PHOSPHOKINASE [2]: 284.5 u/L
- CREATININE [2]: 0.21 mg/dL
- GLUCOSE [2]: 161.67 mg/dL
- LACTATE DEHYDROGENASE [2]: 259.67 u/L
- LIPASE [2]: 9.5 u/L
- PHOSPHORUS [2]: 12.45 mg/dL
- POTASSIUM [2]: 6.49 MEQ/L
- SODIUM [2]: 144.25 MEQ/L
- TOTAL BILIRUBIN [2]: 0.2 mg/dL
- TOTAL PROTEIN [2]: 6.1 G/DL
- URIC ACID [2]: 1.73 mg/dL
- ABSOLUTE BASOPHIL [3]: 0 CELLS/uL
- ABSOLUTE EOSINOPHIL [3]: 0 CELLS/uL
- ABSOLUTE LYMPHOCYTE [3]: 4748 CELLS/uL
- ABSOLUTE MONOCYTE [3]: 119.67 CELLS/uL
- ABSOLUTE SEGMENTED NEUTROPHIL [3]: 265.67 CELLS/uL
- BASOPHIL [3]: 0%
- EOSINOPHIL [3]: 0%
- ERYTHROCYTE COUNT [3]: 5.52 x10E6/uL
- HEMATOCRIT [3]: 36.1%
- HEMOGLOBIN [3]: 13.33 G/DL
- LEUKOCYTE COUNT [3]: 5.13 x10E3/uL
- LYMPHOCYTE [3]: 92.67%
- MEAN CORPUSCULAR HEMOGLOBIN [3]: 24.2 pg
- MEAN CORPUSCULAR HEMOGLOBIN CONCENTRATION [3]: 36.97 G/DL
- MEAN CORPUSCULAR VOLUME [3]: 65.43 fL
- MONOCYTE [3]: 2.33%
- NEUTROPHIL [3]: 5%
- NUCLEATED RED BLOOD CELLS [3]: 0 /100WBC
- PLATELET COUNT [3]: 1331 x10E3/uL
- ALANINE AMINOTRANSFERASE [3]: 33.33 u/L
- ALBUMIN [3]: 4.63 G/DL
- ALKALINE PHOSPHATASE [3]: 363 u/L
- ASPARTATE AMINOTRANSFERASE [3]: 79 u/L
- BLOOD UREA NITROGEN [3]: 15 mg/dL
- CARBON DIOXIDE [3]: 25 mmol/L
- CHLORIDE [3]: 104 MEQ/L
- CHOLESTEROL [3]: 87.33 mg/dL
- CREATINE PHOSPHOKINASE [3]: 255.33 u/L
- CREATININE [3]: 0.17 mg/dL
- GLUCOSE [3]: 163.33 mg/dL
- LACTATE DEHYDROGENASE [3]: 159.67 u/L
- LIPASE [3]: 10 u/L
- PHOSPHORUS [3]: 12.2 mg/dL
- POTASSIUM [3]: 6 MEQ/L
- SODIUM [3]: 147 MEQ/L
- TOTAL BILIRUBIN [3]: 0.13 mg/dL
- TOTAL PROTEIN [3]: 6.57 G/DL
- URIC ACID [3]: 1.6 mg/dL
